Measured values published in patent US20140350273A1, “PEDIATRIC USES OF CABAZITAXEL” (AVENTIS PHARMA S.A., priority 2012, published 2014).
Read-outs that look alike come from different tables or passages of the source.

System: human Ewing's sarcoma SK-ES-1
Type: in vivo
Design: Tumor volume changes from baseline: Median (nMad): unit not given here
Description: This efficacy may be quantified, for example, as changes in tumor volume for each treated (T) and control (C) group, which are calculated for each animal and each day by subtracting the tumor volume on the day of first treatment (staging day) from the tumor volume on the specified observation day. This allows calculating the tumor growth inhibition: ΔT/ΔC=(median delta T/median delta C)×100. Individual tumor volume changes from baseline are thereafter analyzed by a non-parametric two-way ANOVA-TYPE (with factors: group and repeated days) followed by a post-hoc contrasts analysis, with Bonferroni-Holm adjustment for multiplicity, comparing all treated groups to the control group. […] A probability less than 5% (p<0.05) was considered as significant.
Based on the National Cancer Institute (NCl) standards, a ΔT/ΔC≦40% is the minimal level required to declare activity.
The tumor doubling time (in days; Td) was estimated from the plot of the log linear growth of the control group tumors in exponential growth (100 to 1000 mm^3 range) [T. H. Corbett et al., Cancer, 40: 2660-2680 (1977); F. M. Schabel et al., Cancer Drug Development, Part B, Methods in Cancer Research, 17: 3-51, New York, Academic Press Inc. (1979)].
This efficacy may also be quantified by the number of tumor regressions observed after therapy. Individual mice reporting a tumor volume ≦50% of the Day 0 measurement for two consecutive measurements over a seven day period were considered partial responders (PR). Individual mice lacking palpable tumors (<4×4 mm^2 for two consecutive measurements over a seven day period) were classified as complete responders (CR); a CR that persisted until study completion was considered a tumor-free survivor (TFS).
The efficacy of cabazitaxel in comparison with docetaxel on pediatric solid tumors was determined experimentally in the following manner:
The animals subjected to the experiment are subcutaneously grafted unilaterally with approximately 30 mg of a tumor fragment on day 0. The animals are implanted with a human tumor xenografted in immunocompromized mice. Several days post tumor implantation, mice are randomized according to their body weight to the different groups of treatments and controls. The animals are observed every day. The different animal groups are weighed daily during treatment until the maximum weight loss is reached and subsequent full weight recovery has occurred. The groups are then weighed once or twice a week until the end of the trial.
The tumors are measured 1 to 5 times a week, depending on the tumor doubling time, until the tumor reaches approximately 1,000 mm^3, or until the animal dies (if this occurs before the tumor reaches 1,000 mm^3). The animals are necropsied immediately after euthanasia or death.
The selected tumor model was a human Ewing's sarcoma SK-ES-1, xenografted in SCID mice [Fogh J. New York: Plenum Press, 1975].
Cabazitaxel and docetaxel were weighed for each treatment and dissolved in ethanol. Treatment solutions were prepared first by mixing 1 volume of ethanolic stock solution and 1 volume of polysorbate 80, then by adding 18 volumes of glucose 5% in water.
The Td in days was estimated from the plot of the log linear growth of the control group tumors in exponential growth (100 to 1,000 mm^3 range) and the number of tumor regressions observed after therapy.
The following end points have been used: • Toxicity was declared at dosages inducing ≧20% body weight loss or ≧10% drug death; • Relative tumor growth inhibition was determined on day 22 post tumor implantation when the median tumor size in the control group was 456 mm^3; • Antitumor efficacy was determined by calculating the ΔT/ΔC value in percent, according to the above-mentioned formula; • Tumor regressions (as explained above); • Statistical analysis performed (as explained above).

[1] = 3.5 mg/kg per injection (total 7.0) IV days 15; 19
[2] = 3.5 mg/kg per injection (total 7.0) IV days 15; 19; listed as DOCETAXEL
[3] = 3.5 mg/kg per injection (total 7.0) IV days 15; 19; listed as docetaxel
[4] = 5.6 mg/kg per injection (total 11.2) IV days 15; 19
[5] = 5.6 mg/kg per injection (total 11.2) IV days 15; 19; listed as DOCETAXEL
[6] = 9.0 mg/kg per injection (total 18) IV days 15; 19
[7] = 9.0 mg/kg per injection (total 18) IV days 15; 19; listed as DOCETAXEL
[8] = 14.5 mg/kg per injection (total 29) IV days 15; 19
[9] = 14.5 mg/kg per injection (total 29) IV days 15; 19; listed as DOCETAXEL
[10] = 14.5 mg/kg per injection (total 29) IV days 15; 19; listed as docetaxel

## CC(=O)O[C@@]12CO[C@@H]1C[C@H](O)[C@@]1(C)C(=O)[C@H](O)C3=C(C)[C@@H](OC(=O)[C@H](O)[C@@H](NC(=O)OC(C)(C)C)c4ccccc4)C[C@@](O)([C@@H](OC(=O)c4ccccc4)[C@H]21)C3(C)C [Docetaxel, docetaxel]
[1]
  Average body weight change in % per mouse at nadir: −2.1%
  Drug death: 0/7
  Regressions Complete: 0/7
  Regressions Partial: 0/7
  Tumor free survivors at day 120: 0/7
  day of nadir: 16 days
[2]
  Biological interpretation: Inactive
  ΔT/ΔC in % (day 22): 72%
[3]
  Biological interpretation: inactive
  ΔT/ΔC in % (day 22): > 40%
3.5 mg/kg, day 19
  Tumor volume changes from baseline: Median (nMad): 52
3.5 mg/kg, day 22
  Tumor volume changes from baseline: Median (nMad): 136
3.5 mg/kg, day 25
  Tumor volume changes from baseline: Median (nMad): 712
3.5 mg/kg, day 28
  Tumor volume changes from baseline: Median (nMad): 900
3.5 mg/kg; day 19
  Tumor volume changes from baseline: Median (nMad): 52 (89)
3.5 mg/kg; day 22
  Tumor volume changes from baseline: Median (nMad): 136
3.5 mg/kg; day 25
  Tumor volume changes from baseline: Median (nMad): 712 (29.7)
3.5 mg/kg; day 28
  Tumor volume changes from baseline: Median (nMad): 900
[4]
  Average body weight change in % per mouse at nadir: −5.4%
  Drug death: 0/7
  Regressions Complete: 0/7
  Regressions Partial: 1/7
  Tumor free survivors at day 120: 0/7
  day of nadir: 16 days
[5]
  Biological interpretation: Highly Active
  ΔT/ΔC in % (day 22): <0%
5.6 mg/kg per injection (total 11.2) IV days 15; 19; listed as docetaxel
  Biological interpretation: highly active
5.6 mg/kg, day 19
  Tumor volume changes from baseline: Median (nMad): 0
5.6 mg/kg, day 22
  Tumor volume changes from baseline: Median (nMad): −36
5.6 mg/kg, day 25
  Tumor volume changes from baseline: Median (nMad): 168
5.6 mg/kg, day 28
  Tumor volume changes from baseline: Median (nMad): 342
5.6 mg/kg; day 19
  Tumor volume changes from baseline: Median (nMad): 0 (106.7)
5.6 mg/kg; day 22
  Tumor volume changes from baseline: Median (nMad): −36 (60.8)
5.6 mg/kg; day 25
  Tumor volume changes from baseline: Median (nMad): 168 (80.1)
5.6 mg/kg; day 28
  Tumor volume changes from baseline: Median (nMad): 342 (89)
5.6 mg/kg; day 32
  Tumor volume changes from baseline: Median (nMad): 480
5.6 mg/kg; day 35
  Tumor volume changes from baseline: Median (nMad): 2005
[6]
  Average body weight change in % per mouse at nadir: −6.6%
  Drug death: 0/7
  Regressions Complete: 0/7
  Regressions Partial: 6/7
  Tumor free survivors at day 120: 0/7
  day of nadir: 23 days
[7]
  Biological interpretation: Highly Active
  ΔT/ΔC in % (day 22): <0%
9.0 mg/kg per injection (total 18) IV days 15; 19; listed as docetaxel
  Biological interpretation: highly active
9 mg/kg, day 19
  Tumor volume changes from baseline: Median (nMad): 0
9 mg/kg, day 22
  Tumor volume changes from baseline: Median (nMad): −101
9 mg/kg, day 25
  Tumor volume changes from baseline: Median (nMad): −126
9 mg/kg, day 28
  Tumor volume changes from baseline: Median (nMad): −126
9 mg/kg; day 19
  Tumor volume changes from baseline: Median (nMad): 0 (37.1)
9 mg/kg; day 22
  Tumor volume changes from baseline: Median (nMad): −101
9 mg/kg; day 25
  Tumor volume changes from baseline: Median (nMad): −126
9 mg/kg; day 28
  Tumor volume changes from baseline: Median (nMad): −126 (46)
9 mg/kg; day 32
  Tumor volume changes from baseline: Median (nMad): −49
9 mg/kg; day 35
  Tumor volume changes from baseline: Median (nMad): 201
[8]
  Average body weight change in % per mouse at nadir: −10.5%
  Drug death: 0/7
  Regressions Complete: 3/7
  Regressions Partial: 7/7
  day of nadir: 27 days
[9]
  Biological interpretation: Highly Active
  Tumor free survivors at day 120: 0/7
  ΔT/ΔC in % (day 22): <0%
[10]
  Biological interpretation: highly active
  Tumor free survivors at day 120: no TFS
14.5 mg/kg, day 19
  Tumor volume changes from baseline: Median (nMad): −18
14.5 mg/kg, day 22
  Tumor volume changes from baseline: Median (nMad): −156
14.5 mg/kg, day 25
  Tumor volume changes from baseline: Median (nMad): −173
14.5 mg/kg, day 28
  Tumor volume changes from baseline: Median (nMad): −164
14.5 mg/kg; day 19
  Tumor volume changes from baseline: Median (nMad): −18 (77.1)
14.5 mg/kg; day 22
  Tumor volume changes from baseline: Median (nMad): −156
14.5 mg/kg; day 25
  Tumor volume changes from baseline: Median (nMad): −173
14.5 mg/kg; day 28
  Tumor volume changes from baseline: Median (nMad): −164
14.5 mg/kg; day 32
  Tumor volume changes from baseline: Median (nMad): −162
14.5 mg/kg; day 35
  Tumor volume changes from baseline: Median (nMad): −162
14.5 mg/kg; day 39
  Tumor volume changes from baseline: Median (nMad): 290
14.5 mg/kg; day 41
  Tumor volume changes from baseline: Median (nMad): 274
14.5 mg/kg; day 43
  Tumor volume changes from baseline: Median (nMad): 427.5
14.5 mg/kg; day 45
  Tumor volume changes from baseline: Median (nMad): 574
